# Laboratory results published in patent US20080153872A1, “Bis-(Coumarin) Compounds With Anti-Inflammatory Activity” (priority 2005, published 2008).
# Columns and labels:
# IL-5 = test: Inhibition of IL-5 production by ConA stimulated mouse splenocytes; type: cell-based; details: 25 μM
# Method: (§1) Spleen cell suspension was obtained from BALB/c mice and lymphocytes separated by gradient density centrifugation on Histopaque 1.083 on 400 g for 30 minutes. They were washed once in medium, counted and their number adjusted as 3×10^5/200 μL/well in 96 flat bottomed culture plate in RPMI supplemented with 10% fetal bovine serum. Cells were stimulated on cytokine production by adding concanavalinA (ConA) at 5 μg/mL final concentration. Unstimulated cells were cultured in medium alone. Stock solution was prepared out of testing compounds as 10 mM in DMSO. Final concentrations made in cell culture medium were tested when they had been added together with ConA. After 72 hours incubation period cell culture supernatants were collected. In each sample IL-4, IL-5, IL-10 and IFNγ were detected and quantified using enzyme linked immunosorbent assay (ELISA) specific for pointed cytokines (R&D Systems).
# (§2) To calculate results, standard curve was made out of measured OD values for recombinant protein in known concentrations. Cytokine content in unknown samples was calculated out of OD values extrapolated from the standard curve.
# (§3) Percentage of inhibition is calculated using formula:
# (§4) % Inhibition=(1−cytokine concentration of sample/cytokine concentration of positive control)×100.
# Human recombinant Lck = target: T1, Human recombinant Lck (Homo sapiens, UniProt P06239); test: Human protein tyrosine kinase, Lck, inhibition assay; type: biochemical; details: 10 μM
# T1 construct: made in house; host or cells: Sf21 insect cells
# Method: (§5) All compounds were dissolved in dimethyl sulfoxide (DMSO). Final concentration of the DMSO in all tests was 1% (v/v). Inhibition in all tests is considered preferred if it exceeds 50% at 10 μM concentration (or less).
# Human recombinant Lck is expressed in insect Sf21 expression system and purified. Substances are pre-incubated for 15 minutes at 25° C. in HEPES buffer containing ATP, pervanadate and magnesium. Substrate (poly Glu-Tyr) is added and incubated for 60 minutes at 25° C. Activity of the enzyme is measured using phosphotyrosine (p-Tyr) specific enzyme immunoassay and inhibition is calculated from the determination of the concentration of p-Tyr. Protein tyrosine kinase, Lck, is a protein tyrosine kinase which is abundantly expressed in T-lymphocytes and is essential for T-cell receptor signal transduction and thus activation of T-lymphocytes. Lck activation stimulates recruitment and activation of ZAP-70, which is essential for T-cell activation. Inhibitors of Lck act as immunoregulatory agents in various models. Lck is implicated in T-cell leukemias and inflammation.
# Tachykinin NK2 receptor = target: T2, Tachykinin NK2 receptor (Homo sapiens, UniProt P21452); test: Human tachykinin NK2 receptor assay (SR-48968 competition); type: binding; details: 10 μM concentration; CHO-K1, competition with SR-48968
# T2 construct: expressed in transfected cells; host or cells: CHO-K1
# T2 sequence (P21452 1-398): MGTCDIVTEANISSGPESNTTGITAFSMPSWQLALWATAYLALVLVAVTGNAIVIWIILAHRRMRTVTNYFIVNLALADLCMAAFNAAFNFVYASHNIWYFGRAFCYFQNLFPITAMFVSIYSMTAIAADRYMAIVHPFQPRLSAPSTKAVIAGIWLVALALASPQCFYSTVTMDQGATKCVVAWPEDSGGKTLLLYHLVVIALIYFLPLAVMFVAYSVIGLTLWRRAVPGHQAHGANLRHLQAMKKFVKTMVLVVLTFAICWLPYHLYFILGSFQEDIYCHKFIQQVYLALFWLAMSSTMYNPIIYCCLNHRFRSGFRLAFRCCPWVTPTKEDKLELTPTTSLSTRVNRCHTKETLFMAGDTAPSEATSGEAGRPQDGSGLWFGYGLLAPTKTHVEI
# Method: as §5
# Tachykinin NK2 receptor is expressed in Chinese hamster ovary cell line, clone K1 (CHO-K1). Substances and radioactive competitor (tritium labelled SR-48968) are incubated with cells in HEPES/NaOH buffer for 90 minutes at 25° C. in the presence of manganese ions. Levels of the bound SR-48968 is measured by scintillation counting, and competition is calculated from the total amount of the bound SR-48968 in treated and control samples. Tachykinin receptors are involved in physiological and pathological processes of inflammation and pain. Tachykinin NK2 has been identified as a target for intervention in asthma, GI disease, irritable bowel syndrome and pancreatitis.
# Human ERK1 = target: T3, Human ERK1 (Homo sapiens, UniProt P27361); test: Human protein serine/threonine kinase, ERK1, assay; type: biochemical; details: 10 μM
# T3 construct: made in house; host or cells: Escherichia coli
# Method: as §5
# Human ERK1 is expressed in Escherichia coli and purified. Compounds are pre-incubated in MOPS/EGTA buffer with pervanadate, DTT and γ-[^32P]-ATP with recombinant enzyme for 15 minutes at 37° C. Substrate (purified myelin basic protein, MBP) is added, followed by incubation at 37° C. for 30 minutes. Enzyme activity is measured by quantitation of [^32P]-MBP and inhibition is calculated from specific radioactivity. ERK1 is a serine/threonine kinase activated in MAPK (mitogen activated kinase) pathway. ERK1 is implicated in a high proportion of human cancers, including Hodgkin disease. ERK1 is involved in processes of cell growth, division and inflammation.
# IL-10 = test: Inhibition of IL-10 production by ConA stimulated mouse splenocytes; type: cell-based; details: 25 μM
# Method: as §1, §2, §3, §4
# T3 sequence (P27361 whole entry): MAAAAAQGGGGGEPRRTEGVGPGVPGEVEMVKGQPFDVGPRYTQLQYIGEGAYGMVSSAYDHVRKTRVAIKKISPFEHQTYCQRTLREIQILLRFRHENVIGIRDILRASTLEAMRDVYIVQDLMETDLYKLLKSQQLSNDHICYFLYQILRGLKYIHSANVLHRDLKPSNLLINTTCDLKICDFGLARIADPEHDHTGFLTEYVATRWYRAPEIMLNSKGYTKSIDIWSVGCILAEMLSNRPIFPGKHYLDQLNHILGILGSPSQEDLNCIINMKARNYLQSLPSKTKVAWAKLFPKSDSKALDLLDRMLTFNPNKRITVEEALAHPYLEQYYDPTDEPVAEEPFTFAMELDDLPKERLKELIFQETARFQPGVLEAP
# T1 sequence (P06239 whole entry): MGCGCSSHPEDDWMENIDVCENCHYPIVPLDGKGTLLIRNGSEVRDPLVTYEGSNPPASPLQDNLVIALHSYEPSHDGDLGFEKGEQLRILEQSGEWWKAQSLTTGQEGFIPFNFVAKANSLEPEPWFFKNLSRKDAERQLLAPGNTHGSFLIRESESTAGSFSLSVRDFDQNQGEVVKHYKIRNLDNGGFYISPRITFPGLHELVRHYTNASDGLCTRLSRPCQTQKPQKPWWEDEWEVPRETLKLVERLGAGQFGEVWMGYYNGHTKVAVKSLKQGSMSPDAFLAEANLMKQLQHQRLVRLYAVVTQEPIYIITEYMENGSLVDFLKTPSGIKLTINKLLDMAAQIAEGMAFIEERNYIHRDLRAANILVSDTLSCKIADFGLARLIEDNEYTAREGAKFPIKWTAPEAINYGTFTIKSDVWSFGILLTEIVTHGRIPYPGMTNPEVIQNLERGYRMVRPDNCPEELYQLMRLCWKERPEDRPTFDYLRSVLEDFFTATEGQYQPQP
SMILES,inhibition of IL-5 production (IL-5),inhibition of human Lck activity (Human recombinant Lck),inhibition of NK2 activity (Tachykinin NK2 receptor),inhibition of human ERK1 activity (Human ERK1),inhibition of IL-10 production (IL-10)
CC(=O)C(c1c(O)c2cccc(C(C)C)c2oc1=O)c1c(O)c2cccc(C(C)C)c2oc1=O [Example 19],significantly inhibited,significantly inhibited,significant inhibition,significantly inhibited,
CC(C)c1cccc2c(O)c(C(CO)c3c(O)c4cccc(C(C)C)c4oc3=O)c(=O)oc12 [Example 30],significantly inhibited,,,,significantly inhibited
CC(C)c1cccc2c(O)c(C(C(=O)OCCO)c3c(O)c4cccc(C(C)C)c4oc3=O)c(=O)oc12 [Example 50],,,significant inhibition,,
